Results reported in patent US10538545B2 (priority 2017, dated 2020).

What was measured:
WT-AB zebrafish embryos = conditions: in vivo
[1] = system: Tg (kdr:EGFP) zebrafish embryos; conditions: in vivo
[2] = system: AB (wild type) zebrafish embryos; conditions: in vivo
metmyoglobin (metMb) = biological target: T1, metmyoglobin (metMb) (Equus caballus, UniProt P68082); assay: Reaction of DNIC with metmyoglobin (nitroxyl transfer, UV-vis); assay type: biochemical; conditions: 10 μM DNIC + 10 μM metMb, 25 mM phosphate buffer pH 7.4
T1 construct: purchased TCl
Experimental: A typical procedure for nitroxyl-transfer reaction of DNIC-2 and metmyoglobin was described below using DNIC-2a as an example, whereas reaction of DNIC-2b/DNIC-2d and metMb follows the same procedure. 10 μM of metMb in 3.3 mL of 25 mM phosphate buffer (pH 7.4) was loaded in a 4-mL quartz cuvette and sealed with rubber septum under anaerobic N2 atmosphere. 10 μM of DNIC-2a (13.0 μL of 2.5 mM stock solution of DNIC-2a in THF) was added into this aqueous solution, which is thermostated at 25° C. UV-vis spectra of this reaction solution were measured after this reaction solution was incubated for 10 minutes.
A typical procedure for reaction of DNIC-1 and metmyoglobin was described below. To a 4-mL quartz cuvette containing 10 μM of metMb in 3.3 mL of 25 mM phosphate buffer (pH 7.4), 10 μM of DNIC-1, derived from 13.0 μL of 2.5 mM stock solution of DNIC-1 in THF was added via gas-tight syringe at room temperature. The reaction solution was incubated at ambient temperature for 8 hours. No change of UV-vis spectra for this reaction solution was observed.
In example 1, the reaction of a variety of DNICs with metmyoglobin was investigated so as to verify the universal role of bridging ligands, thiolate vs. pyrazolate, on dictating the NO^−-transfer reactivity.

[3] = system: soluble guanylate cyclase (sGC); design: species or system C. elegans; conditions: in vivo

T1 sequence (P68082 2-154 limits assumed): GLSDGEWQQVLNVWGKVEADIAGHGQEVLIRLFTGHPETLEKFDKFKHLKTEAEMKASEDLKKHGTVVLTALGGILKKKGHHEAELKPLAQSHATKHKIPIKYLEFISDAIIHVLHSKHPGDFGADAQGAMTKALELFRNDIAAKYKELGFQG

| Compound | Survival rate of zebrafish, Day 3 (WT-AB zebrafish embryos) [%] | Survival rate of zebrafish, Day 4 (WT-AB zebrafish embryos) [%] | Survival rate of zebrafish, Day 5 (WT-AB zebrafish embryos) [%] | acute toxicity on zebrafish embryo (WT-AB zebrafish embryos) | Vessel Diameter (dorsal aorta diameter) [1] [μm] | Cardiac Output [2] [nL/min] | Fractional Shortening [2] | Heart Rate [2] [bpm] | Short Axis Diameter ED(Dd) [2] [μm] | Short Axis Diameter ES(Ds) [2] [μm] | Ventricular Volume ED [2] [nL] | Ventricular Volume ED-ES [2] [nL] | Ventricular Volume ES [2] [nL] | change of diameter of heart short-axis at end systole (ES) [2] | enhancement of cardiac output [2] | enhancement of fractional shortening [2] | nitroxyl-transfer reactivity toward metmyoglobin (formation of MbNO, shift of UV-vis bands) (metmyoglobin (metMb)) | increase of the GFP fluorescence signal in CX3553 worms [3] |
| --- | --- | --- | --- | --- | --- | --- | --- | --- | --- | --- | --- | --- | --- | --- | --- | --- | --- | --- |
| [(NO)2Fe(μ-^NH2Pyr)2Fe(NO)2] [DNIC-2a] | 100 ± 0.0 | 99.6 ± 0.7 | 98.4 ± 2.7 | no acute toxicity | 25.6±0.6 | 48.4 ± 4.5 | 0.28 ± 0.02 | 145 ± 7 | 83.3 ± 2.5 | 59.6 ± 1.7 | 0.55 ± 0.03 | 0.34 ± 0.02 | 0.21 ± 0.02 | significant decrease | about 2 fold | about 2 fold | nitroxyl transfer from DNIC-2a to metmyoglobin | about 5.7 fold |
| CNC[C@H](O)c1ccc(O)c(O)c1 [Epinephrine, epinephrine, reference compound] | – | – | – | – | – | 37.4 ± 6.1 | 0.25 ± 0.04 | 144 ± 8 | 80.9 ± 1.4 | 61.0 ± 2.5 | 0.46 ± 0.05 | 0.26 ± 0.05 | 0.20 ± 0.03 | – | – | – | – | – |
